One test has as its target T1, KDM4A (Homo sapiens, UniProt O75164, A482E).
T1 construct: transiently transfecting the full-length FLAG-tagged demethylase (WT) into cells; expressed in transfected cells; host or cells: HeLa
T1 sequence (O75164 1-1064 A482E): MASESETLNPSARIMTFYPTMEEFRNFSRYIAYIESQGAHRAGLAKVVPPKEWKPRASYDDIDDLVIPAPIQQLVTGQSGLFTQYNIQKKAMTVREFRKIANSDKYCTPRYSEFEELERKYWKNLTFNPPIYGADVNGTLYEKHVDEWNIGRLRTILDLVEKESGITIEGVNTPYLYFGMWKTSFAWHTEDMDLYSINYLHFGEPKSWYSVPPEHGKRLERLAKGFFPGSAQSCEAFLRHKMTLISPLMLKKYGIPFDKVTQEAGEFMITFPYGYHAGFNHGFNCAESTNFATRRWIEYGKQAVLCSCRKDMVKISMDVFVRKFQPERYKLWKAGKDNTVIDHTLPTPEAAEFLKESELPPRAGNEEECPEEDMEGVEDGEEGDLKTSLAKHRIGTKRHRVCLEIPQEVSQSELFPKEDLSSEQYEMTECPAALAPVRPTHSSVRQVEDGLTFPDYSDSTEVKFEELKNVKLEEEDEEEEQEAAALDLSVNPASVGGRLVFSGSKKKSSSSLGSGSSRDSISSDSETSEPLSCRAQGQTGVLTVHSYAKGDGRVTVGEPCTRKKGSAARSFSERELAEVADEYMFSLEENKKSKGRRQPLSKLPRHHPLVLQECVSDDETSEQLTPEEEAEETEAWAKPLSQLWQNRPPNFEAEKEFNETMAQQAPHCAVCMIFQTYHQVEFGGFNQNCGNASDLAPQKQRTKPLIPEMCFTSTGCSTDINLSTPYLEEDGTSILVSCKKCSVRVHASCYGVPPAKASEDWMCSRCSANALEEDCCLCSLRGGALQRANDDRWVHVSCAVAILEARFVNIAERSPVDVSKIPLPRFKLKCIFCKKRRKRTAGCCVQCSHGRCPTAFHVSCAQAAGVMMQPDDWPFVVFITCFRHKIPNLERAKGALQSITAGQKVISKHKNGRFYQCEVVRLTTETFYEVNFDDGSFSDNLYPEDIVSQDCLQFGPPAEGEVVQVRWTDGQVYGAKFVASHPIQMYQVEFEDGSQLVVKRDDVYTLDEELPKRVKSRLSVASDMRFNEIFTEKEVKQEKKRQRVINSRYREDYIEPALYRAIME
The test is described as follows: High-content immunofluorescence (IF) assay, overexpressed full-length FLAG-tagged KDM in HeLa cells. The test is classed as cell-based. The settings on record: HeLa cells transfected with KDM4A.

Another test concerns the target T2, KDM3A (Homo sapiens, UniProt Q9Y4C1).
T2 sequence (Q9Y4C1 1-1321): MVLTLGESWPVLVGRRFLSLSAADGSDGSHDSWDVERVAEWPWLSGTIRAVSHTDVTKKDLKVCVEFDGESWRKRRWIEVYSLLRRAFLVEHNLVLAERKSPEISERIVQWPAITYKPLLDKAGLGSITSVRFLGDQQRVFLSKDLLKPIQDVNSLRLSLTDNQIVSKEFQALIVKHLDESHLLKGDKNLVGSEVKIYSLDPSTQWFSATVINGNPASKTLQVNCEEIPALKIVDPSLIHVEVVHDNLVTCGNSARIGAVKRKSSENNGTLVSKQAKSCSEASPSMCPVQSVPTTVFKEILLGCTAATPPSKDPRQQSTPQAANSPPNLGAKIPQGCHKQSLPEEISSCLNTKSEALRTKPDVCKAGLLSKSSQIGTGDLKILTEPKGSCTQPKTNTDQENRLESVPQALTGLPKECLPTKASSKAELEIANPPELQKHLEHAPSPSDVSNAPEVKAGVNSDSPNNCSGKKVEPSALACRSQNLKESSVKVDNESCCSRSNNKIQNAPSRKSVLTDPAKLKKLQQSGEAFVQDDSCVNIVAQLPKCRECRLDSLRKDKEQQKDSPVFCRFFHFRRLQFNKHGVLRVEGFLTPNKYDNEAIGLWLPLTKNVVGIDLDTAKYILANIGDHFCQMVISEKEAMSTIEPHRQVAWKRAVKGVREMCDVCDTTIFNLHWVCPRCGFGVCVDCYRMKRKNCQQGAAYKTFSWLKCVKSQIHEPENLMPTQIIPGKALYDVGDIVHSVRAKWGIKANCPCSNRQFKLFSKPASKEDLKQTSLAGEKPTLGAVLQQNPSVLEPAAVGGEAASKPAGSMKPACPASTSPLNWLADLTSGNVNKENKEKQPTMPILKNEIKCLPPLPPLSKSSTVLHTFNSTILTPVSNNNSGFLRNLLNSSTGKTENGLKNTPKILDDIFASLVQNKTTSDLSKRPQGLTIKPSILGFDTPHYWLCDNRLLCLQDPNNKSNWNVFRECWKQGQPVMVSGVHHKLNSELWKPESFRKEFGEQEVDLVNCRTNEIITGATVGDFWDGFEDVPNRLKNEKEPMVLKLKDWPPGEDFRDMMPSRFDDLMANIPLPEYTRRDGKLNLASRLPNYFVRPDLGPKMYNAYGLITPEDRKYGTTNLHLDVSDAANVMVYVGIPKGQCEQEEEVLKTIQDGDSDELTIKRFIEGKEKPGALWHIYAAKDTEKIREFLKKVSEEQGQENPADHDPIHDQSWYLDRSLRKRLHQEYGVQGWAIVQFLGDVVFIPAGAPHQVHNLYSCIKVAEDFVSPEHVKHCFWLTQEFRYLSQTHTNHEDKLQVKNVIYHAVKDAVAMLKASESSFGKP
Described as above. The test is classed as cell-based. Particulars: HeLa cells overexpressing WT KDM3A, H3K9me2 mark, 24 h; read-out: KDM3A, in cells, EC50 by IF assay (head: IC50).

For `O=c1[nH]cnc2c(-n3cc(CCN4CCC(c5cccc(Cl)c5)CC4)cn3)cccc12` [CCT366293, 8-(4-(2-(4-(3-Chlorophenyl)piperidin-1-yl)ethyl)-1H-pyrazol-1-yl)quinazolin-4(3H)-one], the “Effect on H3K9me3 levels in KDM4A IF assay, in words” value at KDM4A was “no effect”.
With `CCN(CCN(C)C)C(=O)CNCc1cncc(C(N)=O)c1` [KDOAM-32], the concentration giving a half-maximal response (EC50) – broadly, the concentration giving half of the maximal effect – on KDM3A was above 100 µM.

These data come from PMC5333395, “Assessing histone demethylase inhibitors in cells: lessons learned” (Epigenetics & Chromatin, 2017).
